In patent US20250344698A1, “A METHOD OF CONTROLLING WEEDS” (SYNGENTA CROP PROTECTION AG, priority 2022, published 2025):

Tested on: PPO inhibitor herbicide resistant Amaranthus tuberculatus homozygous for deletion of glycine at codon 210 in PPX2L
Assay: Postemergence glasshouse test, dead or alive assessment, codon 210 deletion population
Type: in vivo
Details: 14 days after application; for use rate at or beyond which no plants survived application: postemergence

| SMILES | Average % Survival of 16 repetitions (0.82 g ai/ha^−1 postemergence) [%] | Average % Survival of 16 repetitions (1.64 g ai/ha^−1 postemergence) [%] | Average % Survival of 16 repetitions (3.28 g ai/ha^−1 postemergence) [%] | Average % Survival of 16 repetitions (6.56 g ai/ha^−1 postemergence) [%] | Average % Survival of 16 repetitions (13.13 g ai/ha^−1 postemergence) [%] | Average % Survival of 16 repetitions (26.25 g ai/ha^−1 postemergence) [%] | Average % Survival of 16 repetitions (52.5 g ai/ha^−1 postemergence) [%] | Average % Survival of 16 repetitions (105 g ai/ha^−1 postemergence) [%] | Average % Survival of 16 repetitions (210 g ai/ha^−1 postemergence) [%] | Average % Survival of 16 repetitions (420 g ai/ha^−1 postemergence) [%] | Average % Survival of 16 repetitions (840 g ai/ha^−1 postemergence) [%] | use rate at or beyond which no plants survived application [g ai/ha^−1] | Average % Survival of 16 repetitions (2 g ai/ha^−1 postemergence) [%] | Average % Survival of 16 repetitions (4 g ai/ha^−1 postemergence) [%] | Average % Survival of 16 repetitions (8 g ai/ha^−1 postemergence) [%] | Average % Survival of 16 repetitions (16 g ai/ha^−1 postemergence) [%] | Average % Survival of 16 repetitions (32 g ai/ha^−1 postemergence) [%] | Average % Survival of 16 repetitions (64 g ai/ha^−1 postemergence) [%] | Average % Survival of 16 repetitions (128 g ai/ha^−1 postemergence) [%] | Average % Survival of 16 repetitions (256 g ai/ha^−1 postemergence) [%] |
| --- | --- | --- | --- | --- | --- | --- | --- | --- | --- | --- | --- | --- | --- | --- | --- | --- | --- | --- | --- | --- |
| CS(=O)(=O)NC(=O)c1cc(Oc2ccc(C(F)(F)F)cc2Cl)ccc1[N+](=O)[O-] [Fomesafen] | 100 | 100 | 100 | 100 | 100 | 100 | 81.3 | 62.5 | 0 | 0 | 0 | ≥ 210 |  |  |  |  |  |  |  |  |
| CCOC(=O)C1(C)CC(c2cc(-n3c(=O)cc(C(F)(F)F)n(C)c3=O)c(F)cc2Cl)=NO1 (stereo not drawn) [Compound 8, 3-(2-chloro-4-fluoro-5-(3-methyl-2,6-dioxo-4-trifluoromethyl-3,6-dihydropyrimidin-1(2H)-yl)phenyl)-5-methyl-4,5-dihydroisoxazole-5-carboxylic acid ethyl ester] |  |  |  |  |  |  |  |  |  |  |  | ≥ 64 | 100 | 100 | 75 | 12.5 | 12.5 | 0 | 0 | 0 |
